Source: patent publication US20210032257A1, “(E)-1-(4-(DIMETHYLAMINO)BUT-2-ENOYL)PYRROLIDIN-3-YL 4-((3-ISOPROPYL-5-METHYLPYRAZOLO[1,5-A]PYRIMIDIN-7-YL)AMINO)PIPERIDINE-1-CARBOXYLATE FOR INHIBITING CDK7” (Eli Lilly and Company, priority 2017, published 2021)

What was measured:
Assay in all cases: Cell Proliferation Assay (CELL TITER GLO)
Assay type in all cases: cell-based
A2780 = conditions: Homo sapiens, 168 h; A2780, Ovarian Cancer, seven days
Description: (§1) Cell lines are plated at the density 5000 cells per well in 100 μL per well growth medium into a white 96-well cell culture plate. See Table 2 for cell line and culture medium information. Plates are incubated at 37° C. and 5% CO2. The following day, a serial dilution of the test compound is prepared by diluting the compound 1:3 in DMSO for 10 points. The DMSO plate is 1000× the final concentration. In addition to the CDK7 inhibitor, a DMSO alone column is included as a maximum growth control and 10 μM staurosporine final column is included as a maximum growth inhibition control. A 10× dilution plate is then prepared by adding 2 μL per well from the 1000×DMSO plate to 198 μL per well of OMEM (Life Technologies, Carlsbad, Calif., cat #31985-070). Cells are treated with indicated compound by adding 11 μL per well from the 10×OMEM plate to the cell plate containing 100 μL per well growth medium for a 1× final concentration. Plates are placed back into the incubator at 37° C. and 5% CO2. Seven days after compound addition, plates are removed from the incubator and allowed to equilibrate to RT. CELL TITER GLO® reagent is thawed at room temperature and then prepare by mixing one vial of assay buffer with one vial of substrate and swirl gently to mix. CELL TITER GLO® reagent is then added to the cell plate, 100 μL per well, and place on a Titer Plate Shaker at speed setting 2 for 15 minutes at room temperature. After 15 minute incubation on shaker, luminescence is read, 1 second per well, using a Wallac VICTOR2™. Nonlinear regression and sigmoidal dose-response curves are used to calculate the half maximal inhibitory concentration (IC50) with Graphpad Prism 6 software.

HCC1806 = conditions: Homo sapiens, 168 h; HCC1806, Breast Cancer, seven days
Description: as §1

HCT116 = conditions: Homo sapiens, HCT-116, 168 h; HCT116, Colorectal Cancer, seven days
Description: as §1

MCF7 = conditions: Homo sapiens, 168 h; MCF7, Breast Cancer, seven days
Description: as §1

NCI-H446 = conditions: Homo sapiens, 168 h; NCI-H446, Lung Cancer, seven days
Description: as §1

NCI-H460 = conditions: Homo sapiens, 168 h; NCI-H460, Lung Cancer, seven days
Description: as §1

SNU-16 = conditions: Homo sapiens, 168 h; SNU-16, Gastric Cancer, seven days
Description: as §1

In the case of `Cc1cc(NC2CCN(C(=O)O[C@H]3CCN(C(=O)/C=C/CN(C)C)C3)CC2)n2ncc(C(C)C)c2n1` [Example 1, [(3S)-1-[(E)-4-(dimethylamino)but-2-enoyl]pyrrolidin-3-yl] 4-[(3-isopropyl-5-methyl-pyrazolo[1,5-a]pyrimidin-7-yl)amino]piperidine-1-carboxylate], the IC50 (A2780) is reported as 26.5 nM, the IC50 (HCC1806) is reported as 25.5 nM and the IC50 (HCT116) is reported as 46 nM. It also gave an IC50 (MCF7) of 32 nM, an IC50 (NCI-H446) of 14.2 nM and an IC50 (NCI-H460) of 47.9 nM. The IC50 (SNU-16) was 23.1 nM.
